Measurements: patent US20060088573A1, “Composition having action preventing or alleviating symtoms or diseases due to aging of blood vessels” (Suntory Limited, priority 2003, published 2006)

Tested on: thoracic arteries of old rats
Assay: Acetylcholine blood vessel relaxation reaction test on thoracic artery rings after 3 months of diet
Assay type: in vivo, rat
Source text: The effect of triglyceride (arachidonic acid-containing oil (SUNTGA40S)) having arachidonic acid as a component fatty acid prepared in Reference Example 1 on the acetylcholine blood vessel relaxation reaction was investigated using rats. As the test groups of old rats, 15 19-month old male Fischer rats were divided into a control diet group (8 rats: OC group) and a SUNTGA40S compound diet group (7 rats: OA group).
The amount of intake of rats was about 20 g and the daily intake of SUNTGA40S per rat was 100 mg. Of the total fatty acids bonded with the arachidonic acid-containing oil (SUNTGA40S) prepared in Reference Example 1, 40% is arachidonic acid, so the daily intake of arachidonic acid per rat became 40 mg. This 40 mg corresponds to 133 mg/60 kg/day converted to human intake.
In the third month of raising (in the case of old rats, 22-month age and in the case of young rats, four-month age), the thoracic arteries were excised. Part was used for the in vitro blood vessel relaxation reaction test, while the remaining blood vessels were used for analysis of the fatty acid composition. […]

Compound: CCCCC/C=C\C/C=C\C/C=C\C/C=C\CCCC(=O)OC(COC(=O)CCCCCCC)COC(=O)CCCCCCC [8A8, 1,3-capryloyl-2-arachidonoyl-glycerol]
- average blood vessel relaxation rate by acetylcholine 10^-7M (old male Fischer rats (22-month age), 8A8 diet 3 months (40 mg arachidonic acid/rat/day), old control diet 52.3%, young control diet 80.5%): 62.7%
- blood vessel relaxation response (old rats, 8A8 diet 3 months, vs old rats on control diet): improved
